Data on eight molecules can be found in patent US20250186541A1, “DLL3 TARGETING PEPTIDES AND CONSTRUCTS THEREOF” (MARIANA ONCOLOGY INC., priority 2023, published 2025).

For one assay, the target named is T1, human DLL3 (Homo sapiens, UniProt Q9NYJ7).
T1 construct: biotin (biotinylated)
T1 sequence (Q9NYJ7 27-618): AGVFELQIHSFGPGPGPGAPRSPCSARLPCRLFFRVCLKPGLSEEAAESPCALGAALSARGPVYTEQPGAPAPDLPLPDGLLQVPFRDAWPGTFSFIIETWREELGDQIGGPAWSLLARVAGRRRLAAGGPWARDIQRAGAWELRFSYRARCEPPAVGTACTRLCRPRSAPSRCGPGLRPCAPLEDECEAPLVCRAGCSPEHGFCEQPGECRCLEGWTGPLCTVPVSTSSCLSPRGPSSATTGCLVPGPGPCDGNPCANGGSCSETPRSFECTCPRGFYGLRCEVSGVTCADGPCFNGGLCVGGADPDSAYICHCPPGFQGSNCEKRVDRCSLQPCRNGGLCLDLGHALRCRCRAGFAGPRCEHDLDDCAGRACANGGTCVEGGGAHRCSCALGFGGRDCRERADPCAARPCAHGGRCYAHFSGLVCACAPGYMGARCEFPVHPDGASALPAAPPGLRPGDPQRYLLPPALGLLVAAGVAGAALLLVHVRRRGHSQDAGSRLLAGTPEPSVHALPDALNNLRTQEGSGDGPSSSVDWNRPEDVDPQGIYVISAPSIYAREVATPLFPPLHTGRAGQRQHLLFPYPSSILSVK
Description: Affinity determination by Surface Plasmon Resonance (SPR), Biacore, 1:1 binding model. The following applies: biotinylated human DLL3 on streptavidin chip, 25° C.; NB = nonbinding. The essentials: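 SPR with biotinylated human DLL3 captured on a streptavidin chip, with a reference surface subtracted. Samples were injected at several concentrations at 100 μL/min in phosphate buffer with 137 mM NaCl, 2.7 mM KCl, 0.05% P20 and 2% DMSO. Kinetic and affinity constants came from a 1:1 binding fit.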

For assay [1], the system named is SHP-77 cells. Description: Cell binding (total uptake) of [177Lu]Lu-labeled peptide, gamma counter bound fraction. The settings on record: [177Lu]Lu-test peptide, 1 h, 37° C., 1% PBSA. Format: cell-based, human. Here is the method: (§1) Example 4. Cell Binding, Internalization, and Radiolabeling of Targeting Moieties Polypeptides General Procedure for Radiolabeling of RPTs with [^177Lu]LuCl3
(§2) [^177Lu]LuCl3 was received from venders in HCl solution. For every mCi of [^177Lu]LUCl3 added to the reaction vial (1.5 mL Eppendorf vial), ammonium acetate buffer (0.2 M, pH 4.9, 100 μL, containing 1% w/v ascorbic acid and 6% v/v ethanol) and peptide conjugate (1 nmol) was added. The pH of the solution was determined to be approximately 5 by using pH strips. The reaction vial was incubated at 80° C., 700 RPM for 17-20 minutes. A sample from the reaction was analyzed by RP-HPLC using an Agilent Infinity II 1260 HPLC to determine reaction completion and radiochemical purity. HPLC conditions: Waters XBridge BEH […] Column, 130 Å, 3.5 um, 4.6 mm×250 mm; mobile phase: Solvent A=water (with 0.1% formic acid), solvent B=acetonitrile (with 0.1% formic acid). Gradients: 25-45% B in 10 minutes, 45-65% B in 12 minutes, 65-90% in 6 minutes at a flow rate of 0.5 mL/min. Required amounts of the product was formulated in 1% PBSA for cell studies.
(§3) The study was conducted using SHP-77cells (Table 7) Adherent cell studies: The cells were cultured in appropriate culture media (20 mL) in tissue culture treated T150 flasks at 37° C. and 5% CO2. Adherent cells were detached (60-70% confluent) using 5 mL Versene at 37° C. for 3 min. After confirming the viability using countess and count of detached cells using Trypan blue, the cells were centrifuged at 4° C. for 5 minutes (1,000 rpm). The cell pellet obtained was washed once with PBS and resuspended in 1% PBSA to obtain the desired cell concentration (5-25 million cells/mL).
(§4) Suspension cell studies: The cells were cultured in appropriate culture media (20 mL) in tissue culture treated T150 flasks at 37° C. and 5% CO2. After confirming the viability and count of detached cells using Trypan blue, the cells were centrifuged at 4° C. for 5 minutes (1,000 rpm). The cell pellet obtained was washed once with PBS and resuspended in 1% PBSA to obtain the desired cell concentration (5-25 million cells/mL).
(§5) Cell numbers used for the assay were in the range of 5 million cells/condition −25 million cells/condition.
Total uptake: Cells were incubated with 300 μL (0.8 μCi) of the incubation buffer (containing radiolabeled peptide [^177Lu]Lu-test peptide) for 1 hour at 37 C (Table 8). Post incubation, the cells were pelleted and washed 2 times using cold PBS+1% BSA. The supernatant and washes were combined and counted together as “unbound fraction” in a gamma counter. The cells were then resuspended in 300 μL of 1% PBS+1% BSA and counted in the gamma counter as “bound fraction”.
(§6) SHP-77 cells are human-derived, non-engineered SCLC cells.

In assay [2] the test system is SHP-77 cells. Nature of the assay: Internalization of [177Lu]Lu-labeled peptide after glycine acid wash, gamma counter internalized fraction. Format: cell-based, human. The following applies: [177Lu]Lu-test peptide, 1 h, 37° C., acid wash 50 mM Glycine pH 2.5. Here is the method: as §1, §2, §3, §4, §5
Internalization: The resuspended cells in 300 μl of 1% PBSA and counted in the gamma counter as “bound fraction” were collected in 1.5 ml Eppendorf tube and pelleted. The pelleted cells were incubated with 300 μl of 50 mM Glycine pH=2.5 for 3 minutes and then pelleted discarding the supernatant. This process was repeated one more time. The pelleted cells were washed with 300 μl of cold 1% PBSA and then resuspended in 300 μl 0.3M NaOH. This was counted in the gamma counter as “internalized fraction”.
as §6

Assay [3] deals with DLL3 on SHP-77 cells (human) (UniProt Q9NYJ7). Description: 177Lu-labelled peptide on SHP-77 cells, 1 h 37 C, gamma count of bound fraction.

Numbered stars: 1 amine (or outer) side, 2 acyl side, 3 side chain; on linkers, the order of the positions; unused ones are H or OH. Bridge positions count the residues as written; N and C are the ends. Square brackets hold non-standard residues; d marks the D form. Peptide text beside a SMILES is read from it. * marks the point of attachment. Ala(piperidin-4-yl) = O=C([C@H](CC1CCN([*:3])CC1)N[*:1])[*:2]; DOTA = O=C(O)CN1CCN(CC(=O)O)CCN(CC(=O)*)CCN(CC(=O)O)CC1; Phe(4-CH2NH2) = NCc1ccc(C[C@H](N)C(=O)O)cc1; 1Nal = N[C@@H](Cc1cccc2ccccc12)C(=O)O; 2Nal = N[C@@H](Cc1ccc2ccccc2c1)C(=O)O; Phe(2-Me) = Cc1ccccc1C[C@H](N)C(=O)O; tBuAla = CC(C)(C)C[C@H](N)C(=O)O; AllylGly = C=CC[C@H](N)C(=O)O; PAF(DOTA) = not defined here; αMeP = C[C@@]1(C(=O)O)CCCN1; NMeS = CN[C@@H](CO)C(=O)O; Ahx = NCCCCCC(=O)O

`CC(=O)N[C@H](C)C(=O)N[C@@H](CO)C(=O)N[C@@H](CC(=O)O)C(=O)N[C@H]1CSSC[C@@H](C(=O)N2CCC[C@@]2(C)C(=O)N[C@@H](Cc2ccccc2)C(=O)N[C@@H](CC(=O)O)C(=O)N[C@H](CCCCNC(=O)CN2CCN(CC(=O)O)CCN(CC(=O)O)CCN(CC(=O)O)CC2)C(N)=O)NC(=O)[C@H](CC(=O)O)NC(=O)[C@H](Cc2ccc3ccccc3c2)NC(=O)[C@H](C)NC(=O)[C@H](CC(C)(C)C)NC(=O)[C@H](Cc2cccc3ccccc23)NC1=O` [compound 166, Ac-(D-Ala)-S-D-C(3)-(1Nal)-(t-Bu-Ala)-Ala-(2Nal)-D-C(3)-(aMe-P)-F-D-[D-Lys(DOTA)]-NH2] (Ac-[dA]SDC[1Nal][tBuAla]A[2Nal]DC[αMeP]FD[dK](DOTA)-NH2; disulfide 4-10): the Kd on human DLL3 stood at 0.049 nM. The “% Binding” value in the assay on SHP-77 cells [1] amounted to 7%. In addition, in the assay on SHP-77 cells [2], the “% Internalization (out of bound fraction)” value was 58%.
Taken in the same sequence, the figures for `CC(C)(C)C[C@@H]1NC(=O)[C@H](Cc2cccc3ccccc23)NC(=O)[C@@H](NC(=O)[C@H](CC(=O)O)NC(=O)[C@H](CO)NC(=O)CCCCCNC(=O)CN2CCN(CC(=O)O)CCN(CC(=O)O)CCN(CC(=O)O)CC2)CSSC[C@@H](C(=O)N2CCC[C@@]2(C)C(=O)N[C@@H](Cc2ccccc2)C(=O)N[C@@H](CC(=O)O)C(N)=O)NC(=O)[C@H](CC(N)=O)NC(=O)[C@H](Cc2ccc3ccccc3c2)NC(=O)[C@H](CC2CCNCC2)NC1=O` [compound 176, DOTA-Ahx-S-D-C(3)-(1Nal)-(t-Bu-Ala)-[3-(4-piperidinyl)-Ala]-(2Nal)-N-C(3)-(aMe-P)-F -D-CONH2] ({DOTA-Ahx}-SDC[1Nal][tBuAla][Ala(piperidin-4-yl)][2Nal]NC[αMeP]FD-NH2; disulfide 3-9) were 0.047 nM, 6% and 53%.
In the same order, the values of `CC(=O)N[C@@H](CC1CCNCC1)C(=O)N(C)[C@@H](CO)C(=O)N[C@@H](CC(=O)O)C(=O)N[C@H]1CSSC[C@@H](C(=O)N2CCC[C@@]2(C)C(=O)N[C@@H](Cc2ccccc2)C(=O)N[C@@H](CC(=O)O)C(N)=O)NC(=O)[C@H](CC(N)=O)NC(=O)[C@H](Cc2ccc3ccccc3c2)NC(=O)[C@H](Cc2ccc(CNC(=O)CN3CCN(CC(=O)O)CCN(CC(=O)O)CCN(CC(=O)O)CC3)cc2)NC(=O)[C@H](CC(C)(C)C)NC(=O)[C@H](Cc2cccc3ccccc23)NC1=O` [compound 191, Ac-[3-(4-piperidinyl)-Ala]-(NMe-Ser)-D-C(3)-(1Nal)-(t-Bu-Ala)-[PAF(DOTA)]-(2Nal)-N-C(3)-(aMe-P)-F-D-CONH2] (Ac-[Ala(piperidin-4-yl)][NMeS]DC[1Nal][tBuAla][Phe(4-CH2NH2)](DOTA)[2Nal]NC[αMeP]FD-NH2; disulfide 4-10) are 0.21 nM, 10% and 48%.
In the same order, the values of `CC(=O)N[C@@H](CC1CCNCC1)C(=O)N(C)[C@@H](CO)C(=O)N[C@@H](CC(N)=O)C(=O)N[C@H]1CSSC[C@@H](C(=O)N2CCC[C@@]2(C)C(=O)N[C@@H](Cc2ccccc2)C(=O)N[C@@H](CC(=O)O)C(N)=O)NC(=O)[C@H](CC(N)=O)NC(=O)[C@H](Cc2ccc3ccccc3c2)NC(=O)[C@H](Cc2ccc(CNC(=O)CN3CCN(CC(=O)O)CCN(CC(=O)O)CCN(CC(=O)O)CC3)cc2)NC(=O)[C@H](CC(C)(C)C)NC(=O)[C@H](Cc2cccc3ccccc23)NC1=O` [compound 192, Ac-[3-(4-piperidinyl)-Ala]-(NMe-Ser)-N-C(3)-(1Nal)-(t-Bu-Ala)-[PAF(DOTA)]-(2Nal)-D-C(3)-(aMe-P)-F-D-CONH2] (Ac-[Ala(piperidin-4-yl)][NMeS]NC[1Nal][tBuAla][Phe(4-CH2NH2)](DOTA)[2Nal]NC[αMeP]FD-NH2; disulfide 4-10) are 0.27 nM, 9% and 45%.
On to `CC(=O)N[C@H](C)C(=O)N(C)[C@@H](CO)C(=O)N[C@@H](CC(=O)O)C(=O)N[C@H]1C/C=C/C[C@@H](C(=O)N2CCC[C@@]2(C)C(=O)N[C@@H](Cc2ccccc2)C(=O)N[C@@H](CC(=O)O)C(N)=O)NC(=O)[C@H](CC(N)=O)NC(=O)[C@H](Cc2ccc3ccccc3c2)NC(=O)[C@H](Cc2ccc(CNC(=O)CN3CCN(CC(=O)O)CCN(CC(=O)O)CCN(CC(=O)O)CC3)cc2)NC(=O)[C@H](CC(C)(C)C)NC(=O)[C@H](Cc2cccc3ccccc23)NC1=O` [compound 195, Ac-(D-Ala)-(NMe-Ser)-D-AllyG(4)-(1Nal)-(t-Bu-Ala)-[PAF(DOTA)]-(2Nal)-N-AllyG(4)-(aMe-P)-F-D-CONH2] (Ac-[dA][NMeS]D[AllylGly][1Nal][tBuAla][Phe(4-CH2NH2)](DOTA)[2Nal]N[AllylGly][αMeP]FD-NH2; staple (E) 4-10), for which the Kd at human DLL3 was found to be 0.63 nM. In addition, the “% Binding” value in the assay on SHP-77 cells [1] stood at 7%. Moreover, the “% Internalization (out of bound fraction)” value in the assay on SHP-77 cells [2] turned out to be 43%.
Turning to `CC(=O)N[C@@H](CC1CCNCC1)C(=O)N[C@@H](CO)C(=O)N[C@@H](CC(=O)O)C(=O)N[C@H]1CC=CC[C@@H](C(=O)N2CCC[C@@]2(C)C(=O)N[C@@H](Cc2ccccc2)C(=O)N[C@@H](CC(=O)O)C(N)=O)NC(=O)[C@H](CC(N)=O)NC(=O)[C@H](Cc2ccc3ccccc3c2)NC(=O)[C@H](Cc2ccc(CNC(=O)CN3CCN(CC(=O)O)CCN(CC(=O)O)CCN(CC(=O)O)CC3)cc2)NC(=O)[C@H](CC(C)(C)C)NC(=O)[C@H](Cc2cccc3ccccc23)NC1=O` [compound 200, Ac-[3-(4-piperidinyl)-Ala]-S-D-AllyG(4)-(1Nal)-(t-Bu-Ala)-[PAF(DOTA)]-(2Nal)-N-AllyG(4)-(aMe-P)-F-D-CONH2] (Ac-[Ala(piperidin-4-yl)]SD[AllylGly][1Nal][tBuAla][Phe(4-CH2NH2)](DOTA)[2Nal]N[AllylGly][αMeP]FD-NH2; staple 4-10), the Kd on human DLL3 came out at 0.18 nM. In the assay on SHP-77 cells [1], the “% Binding” value came out at 6%. Moreover, the “% Internalization (out of bound fraction)” value with SHP-77 cells [2] was found to be 46%.

B1: [177Lu]Lu-Cpd #158 (peptide)
peptide: Ac-[dA]SDC[1Nal][tBuAla][PAF(DOTA)][2Nal]NC[αMeP]FD-NH2
modifications: disulfide 4-10; reading uncertain; also: 177Lu chelated, printed as Ac-(D-Ala)-S-D-C(3)-(1Nal)-(t-Bu-Ala)-[PAF(DOTA)]-(2Nal)-N-C(3)-(aMe-P)-F-D-CONH2; (3)=disulfide; 177Lu chelated
As for B1, in assay [3], the % Binding was found to be 25%.

B2: [177Lu]Lu-Cpd #154 (peptide)
peptide: {DOTA}-[dA]SDC[1Nal][tBuAla]Q[2Nal]NC[αMeP][Phe(2-Me)]D-NH2
modifications: disulfide 4-10; also: 177Lu chelated
In turn, B2 registered a % Binding in assay [3] of 10%.
